{"source": "patent US20060025471A1", "about": "“Xanthenyl cubane analogs with activity at the metabotropic glutamate receptors” (priority 2002, published 2006)", "key": {"[1]": {"tested_on": "Cultured hippocampal pyramindal neurons", "experiment": "In vitro anoxia study, neuronal cell death", "type": "cell-based", "conditions": "30 minutes anoxia; counts 24 hours post anoxic exposure", "text": "The ability of a candidate compound to inhibit neuronal cell death can be examined using an in vitro anoxia study. […] A candidate compound can be administered to the neuronal cell culture at various time points prior to exposure to the anoxic condition to examine the prophylactic activity of the compound or during or after exposure to the anoxic condition to examine therapeutic activity of the compound. Suitable negative controls include, for example, buffer in place of the candidate compound.\nThe neuroprotective effects of a thioxanthenyl cubane (Compound 6) were examined using an in vitro anoxia study. Cultured hippocampal pyramindal neurons were exposed to anoxic conditions (oxygen free buffer) for 30 minutes. Twenty-four hours post anoxic exposure cell counts were conducted manually."}, "[2]": {"tested_on": "fear induced freezing", "experiment": "Fear induced freezing model", "type": "in vivo, rat", "conditions": "diazepam at 3 mg/kg; for reduction in freezing, context alone: environment alone; for reduction in freezing, context plus tone: environment with conditioning sound", "text": "The anxiolytic properties of a candidate compound can also be examined using the fear induced freezing model. Briefly, this test relies on the induction of a well known effect in rats when they are challenged. The rat is subjected to a mild shock associated with a sound which results in the animal becoming very still when expecting that shock. The effect of a candidate compound on fear induced freezing can be compared with a known standard such as diazepam and a negative control (such as buffer only). The fear induced freezing test can be conducted at various time points following administration of the candidate compound.\nThe anxiolytic properties of a thioxanthenyl cubane (Compound 6) were also examined using the fear induced freezing model. Briefly, this test relies on the induction of a well known effect in rats when they are challenged. The rat is subjected to a mild shock associated with a sound which results in the animal becoming very still when expecting that shock.\nThe animal is placed in its home cage for acclimatization before being placed back in the test environment in the presence or absence of test compound. The reduction in freezing is used as a measure of anxiolysis. […] The second paradigm (context plus tone) produces a larger and more difficult to overcome anxiety."}, "[3]": {"tested_on": "elevated plus maze", "experiment": "Elevated plus maze test", "type": "in vivo, rat", "text": "The anxiolytic properties of candidate compounds can be further evaluated using the elevated plus maze test. This test is dependent on the predisposition of rodents to remain in the dark and offers the choice between dark areas of the maze and the opportunity to explore lighted areas. The effect of a candidate compound on the elevated plus maze test can be compared with a known standard such as diazepam and a negative control (such as buffer only). The elevated maze plus test can be conducted at various time points following administration of the candidate compound.\nTo further examine the anxiolytic properties of a thioxanthenyl cubane (Compound 6), the elevated plus maze test was conducted. The elevated plus maze test is sensitive to benzodiazepine type anxiolytics while other anxiolytics such as the serotonin reuptake inhibitors (SSRIs) show poor efficacy in this test. This test is dependent on the predisposition of rodents to remain in the dark and offers the choice between dark areas of the maze and the opportunity to explore lighted areas."}, "[4]": {"tested_on": "rat global ischemia model", "experiment": "Rat global ischemia model", "type": "in vivo", "conditions": "1 mg/kg intra-peritoneal post ischemic insult", "text": "The neuroprotective effects of a candidate compound can also be evaluated in a number of in vivo animal models including, the rat global ischemia model. Briefly, two of the four cerebral arteries are permanently occluded and surgical silk is loosely placed around the remaining two cerebral arteries. Temporary tightening of the surgical silk leads to 4 vessel occlusion and temporary global ischemia. At various time points after ischemic insult the brain can be removed and examined for ischemic injury.\nThe neuroprotective effects of a thioxanthenyl cubane (Compound 6) were examined in vivo using the rat global ischemia model. Briefly, two of the four cerebral arteries are permanently occluded and surgical silk is loosely placed around the remaining two cerebral arteries. Temporary tightening of the surgical silk leads to 4 vessel occlusion and temporary global ischemia. Seven days post ischemic insult, the brain is removed and the CA1 region of the hippocampus, a region very suspectible to ischemic damage, is examined."}, "[5]": {"tested_on": "focal ischemia model", "experiment": "Starch microsphere infusion focal ischemia model", "type": "in vivo, rat", "procedure": "Alternatively, the starch microsphere infusion focal ischemia model can be used. Briefly, starch microspheres are injected unilaterally into one of the carotid arteries. Blood flow is temporarily occluded on the injected side for approximately 30 minutes. Reperfusion occurs after the initial starch clot is resolved. At various time points after ischemic insult the brain can be removed and examined for ischemic injury.\nThe compounds of the present invention have been evaluated in a rat model of focal ischemia which is similar to that seen in strokes in humans. Briefly, starch microspheres are injected unilaterally into one of the carotid arteries. Blood flow is temporarily occluded on the injected side for approximately 30 minutes. Reperfusion occurs after the initial starch clot is resolved. The test compound is administered either prophylactically before vessel occlusion or therapeutically post vessel occlusion.\nThe neuroprotective effects of a thioxanthenyl cubane (Compound 6) were further examined using a starch microsphere infusion focal ischemia model. Briefly, starch microspheres are injected unilaterally into one of the carotid arteries. Blood flow is temporarily occluded on the injected side for approximately 30 minutes. Reperfusion occurs after the initial starch clot is resolved.\nCompound 6 was intra-peritoneally administered at dosages of 0.1, 1.0, and 10 mg/kg either prophylactically or therapeutically. The prophylactic dose schedule included a dose of Compound 6 administered 30 minutes prior to ischemic insult followed by doses at 30 minutes and 3 hours post insult. For therapeutic administration, Compound 6 was administered 3 hours post insult only. […] In addition to providing substantial neuroprotection, Compound 6 reduced the incidence of seizures following ischemic insult in a dose-dependent manner."}, "[6]": {"experiment": "Functional observational battery (side effect profile)", "type": "in vivo", "text": "The side effect profile for an intra-peritoneally administered thioxanthenyl cubane (Compound 6) was examined and compared to diazepam using functional observational battery which is a series of observational markers designed to indicate level of impairment. The greater the functional observational battery score, the greater the impairment."}, "[7]": {"tested_on": "social interaction", "experiment": "Social interaction studies", "type": "in vivo, rat", "procedure": "The effect of a candidate compound on social interaction can also be examined in rodents. Briefly, social interaction can be measured as follows: a strange intruder is introduced into the cage of an acclimatized treated rat and the number of times the rat either bites (# bites) or wrestles (# pins) the intruder is determined. The effect of a candidate compound on social interaction can be compared with a known standard such as diazepam and a negative control (such as buffer only). The social interaction test can be conducted at various time points following administration of the candidate compound.\nThe effect of a thioxanthenyl cubane (Compound 6) on social interaction was examined in rodents. Briefly, social interaction is measured as follows: a strange intruder is introduced into the cage of an acclimatized treated rat and the number of times the rat either bites (# bites) or wrestles (# pins) the intruder is determined. Compound 6 was administered at three doses and compared to saline and diazepam at 2 mg/kg."}, "[8]": {"tested_on": "fear potentiated startle", "experiment": "Fear potentiated startle model", "type": "in vivo, rats", "text": "The fear potentiated startle model permits measurement of learned fear of a stimulus that has been paired with repeated foot shocks. The effect of a candidate compound on fear potentiated startle can be compared with a known standard such as diazepam and a negative control (such as buffer only). The fear potentiated startle test can be conducted at various time points following administration of a candidate compound.\nThe anxiolytic properties of a thioxanthenyl cubane (Compound 6) were examined using the fear potentiated startle model. This model permits measurement of learned fear of a stimulus that has been paired with repeated foot shocks. The effect of Compound 6 on fear potentiated startle was compared with the known standard, diazepam. All tests were run 30 min after intraperitoneal drug administration. Compound 6 was administered at 1.0, 3.0, 10 and 15 mg/kg in rats.\nThe oral bioavailability and efficacy of a thioxanthenyl cubane (Compound 6) was studied using the fear potentiated startle model. Compound 6 was administered by gavage at a dose of 12 mg/kg. Following a 90 minute period allowed for drug absorption, the oral efficacy was examined using the fear potentiated startle model. As shown in FIG. 8 oral Compound 6 was effective in reducing the fear potentiated startle model.\nThe onset and duration of a thioxanthenyl cubane (Compound 6) was studied using the fear potentiated startle model. Thioxanthenyl cubane was administered by gavage at a dose of 15 mg/kg. The effect of oral Compound 6 on fear potentiated startle was examined at 30 minutes, 1, 2, 4, 6 and 8 hours post drug administration."}, "[9]": {"experiment": "Asymmetric grid test (impairment of motor function)", "type": "in vivo", "conditions": "4 mg/kg; compared to the null experiment", "procedure": "To further examine the side effect of profile of Compound 6 the assymmetric grid test was conducted to measure impairment of motor function. Briefly, in the assymetric grid test the animal is placed on one side of a grid pattern, designed to challenge the animals motor function. On the other side of the grid is the animal's home cage or a reward. As the animal enters the grid it is monitored for mistakes by a camera placed horizontally in line with the grid. The camera records the number of forelimb and hindlimb intrusions through the grid and the higher the number, the greater the impairment."}}, "data": [{"smiles": "NC(CC1c2ccccc2Sc2ccccc21)(C(=O)O)C12C3C4C1C1C2C3C41C(=O)O", "note": "(stereo not shown) [Compound 6, 4-carboxycubane-1-thioxanthenyl-1-glycine]", "values": [{"measurement": "number of living cells in anoxic cultures relative to control anoxic cultures", "setting": "[1]", "value": "2 to 3", "unit": "times"}, {"measurement": "reduction in freezing, context alone", "setting": "[2]", "value": "effective in both scenarios"}, {"measurement": "reduction in freezing, context plus tone", "setting": "[2]", "value": "effective in both scenarios"}, {"measurement": "time spent in the exposed (open, light) area of the maze", "setting": "[3]; 1 mg/kg", "value": "only a tendency"}, {"measurement": "ischemic damage to the CA1 region of the hippocampus vs untreated ischemic animals", "setting": "[4]; 7 days", "value": "reduction in ischemic damage"}, {"measurement": "reduction in cell death", "setting": "[4]; 7 days after the procedure", "value": "greater than 50%"}, {"measurement": "neuroprotection in treated animals", "setting": "[5]; 0.1, 1.0, 10 mg/kg intra-peritoneal, no obvious dose dependence", "value": "Neuroprotection was observed in all animals"}, {"measurement": "ischemic damage to the hippocampus, especially retrospenial and piriform cortices, vs untreated ischemic animals", "setting": "[5]; 0.1, 1.0, 10 mg/kg intra-peritoneal, prophylactic or therapeutic schedule", "value": "reduction in ischemic damage"}, {"measurement": "incidence of seizures following ischemic insult", "setting": "[5]; 0.1-10 mg/kg intra-peritoneal, dose-dependent", "value": "reduced"}, {"measurement": "difference in neuronal cell number between ipsilateral and contralateral sides of the CA1 region", "setting": "[5]; prophylactic or therapeutic treatment groups, 0.1, 1.0, 10 mg/kg", "value": "no significant difference"}, {"measurement": "impairment, functional observational battery score", "setting": "[6]; in vivo", "value": "this level of impairment was not observed"}, {"measurement": "number of bites, compared with diazepam 2 mg/kg", "setting": "[7]; 10 mg/kg", "value": "equal reduction"}, {"measurement": "number of pins, compared with diazepam 2 mg/kg", "setting": "[7]; 10 mg/kg", "value": "equal reduction"}, {"measurement": "oral efficacy on fear potentiated startle", "setting": "[8]; gavage 12 mg/kg, 90 minute absorption period", "value": "effective"}, {"measurement": "onset of effect on fear potentiated startle", "setting": "[8]; gavage 15 mg/kg", "value": 30, "unit": "min"}, {"measurement": "time of maximum effect on fear potentiated startle", "setting": "[8]; gavage 15 mg/kg", "value": 4, "unit": "h"}, {"measurement": "time of return of effect to base line", "setting": "[8]; gavage 15 mg/kg", "value": 8, "unit": "h"}, {"measurement": "effect on fear potentiated startle", "setting": "[8]; intraperitoneal 1.0, 3.0, 10 and 15 mg/kg, 30 min after administration", "value": "dose dependent reduction"}, {"measurement": "effect on fear potentiated startle at the highest dose", "setting": "[8]; intraperitoneal, highest dose (15 mg/kg)", "value": "tendency to reverse the effect"}, {"measurement": "dose of apparent maximum reduction in fear potentiated startle", "setting": "[8]; intraperitoneal, 30 min after administration", "value": 3, "unit": "mg/kg"}]}, {"smiles": "CN1C(=O)CN=C(c2ccccc2)c2cc(Cl)ccc21", "note": "[diazepam, reference compound]", "values": [{"measurement": "reduction in freezing, context alone", "setting": "[2]", "value": "effective"}, {"measurement": "reduction in freezing, context plus tone", "setting": "[2]", "value": "only effective in the less stringent first paradigm"}, {"measurement": "time spent in the exposed (open, light) area of the maze", "setting": "[3]; 2 mg/kg", "value": "clear increase"}, {"measurement": "impairment, functional observational battery score", "setting": "[6]; intra-peritoneal, high doses (Compound 6 very high doses)", "value": "large degree of impairment"}, {"measurement": "number of forelimb and hindlimb mistakes", "setting": "[9]", "value": "increases significantly"}, {"measurement": "number of bites", "setting": "[7]; 2 mg/kg", "value": "clear reduction"}, {"measurement": "number of pins", "setting": "[7]; 2 mg/kg", "value": "clear reduction"}, {"measurement": "effective oral dose level in fear potentiated startle", "setting": "[8]; oral dose response (FIG. 9)", "value": 7, "unit": "mg/kg"}]}]}
